Test results as given in US10780101B2, “Amide derivatives of squalamine for the treatment of infections” (VIRBAC, priority 2016, dated 2020).
≈ marks a conversion by molar mass, not a printed value. Like-named read-outs stand apart in the source and are kept apart here.

Columns and labels:
E. coli Human ATCC 28922 = test: MIC determination, E. coli human ATCC 28922; type: cell-based; conditions: Escherichia coli, ATCC28922; Gram-negative; Mueller-Hinton medium, 24 h at 37° C.
How it was run: (§1)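 Strains, thawed from −80 °C glycerol stocks, are grown in Mueller-Hinton medium and seeded at OD 0.01 per well. Test compounds, prepared at 5 mg/mL in DMSO/methanol 50/50, are serially diluted by half. After 24 h at 37 °C, turbidity at 620 nm gives the MIC.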

C. albicans = test: Antifungal activity, cascade microdilution; type: cell-based; conditions: Candida albicans, 24 h, read-out: IC50 (μg/mL) C. albicans
[1] = tested on: P. aeruginosa Animal (1051575); test: MIC determination, P. aeruginosa animal (1051575); type: cell-based; conditions: Pseudomonas aeruginosa; Gram-negative; Mueller-Hinton medium, 24 h at 37° C.
How it was run: as §1

[2] = tested on: P. aeruginosa Human ATCC 27853; test: MIC determination, P. aeruginosa human ATCC 27853; type: cell-based; conditions: Pseudomonas aeruginosa, ATCC27853; Gram-negative; Mueller-Hinton medium, 24 h at 37° C.
How it was run: as §1

[3] = tested on: E. faecalis Human ATCC 29212; test: MIC determination, E. faecalis human ATCC 29212; type: cell-based; conditions: Enterococcus faecalis, ATCC29212; Gram-positive; Mueller-Hinton medium, 24 h at 37° C.
How it was run: as §1

S. aureus Animal (340) = test: MIC determination, S. aureus animal (340); type: cell-based; conditions: Staphylococcus aureus; Gram-positive; Mueller-Hinton medium, 24 h at 37° C.
How it was run: as §1

[4] = tested on: S. aureus Human ATCC 25923; test: MIC determination, S. aureus human ATCC 25923; type: cell-based; conditions: Staphylococcus aureus, ATCC25923; Gram-positive; Mueller-Hinton medium, 24 h at 37° C.
How it was run: as §1

[5] = tested on: S. intermedius Animal (1051997); test: MIC determination, S. intermedius animal (1051997); type: cell-based; conditions: Staphylococcus intermedius; Gram-positive; Mueller-Hinton medium, 24 h at 37° C.
How it was run: as §1

CHO-K1 cells = test: WST1 cytotoxicity test on CHO-K1 cells; type: cell-based, Chinese hamster; conditions: Cricetulus griseus
How it was run: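 CHO-K1 cells pre-grown 24 h, then exposed to increasing compound concentrations in duplicate for 24 h at 37° C, 5% CO2. Viability read after 20 min with 10% WST-1 in PBS at 450 nm; IC50 from nonlinear regression as concentration cutting viability 50%.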

P. aeruginosa (1051575) = test: Potentiation of doxycycline activity (combination MIC); type: cell-based, Pseudomonas aeruginosa; conditions: in presence of doxycycline 2 μg/mL; 24 hours at 37° C.
E. coli Animal (1956) = test: MIC determination, E. coli animal (1956); type: cell-based; conditions: Escherichia coli; Gram-negative; Mueller-Hinton medium, 24 h at 37° C.
How it was run: as §1

[6] = CHO-K1, 24 h, read-out: IC50 (μg/mL) CHO
[7] = CHO-K1, read-out: IC50 (μg/mL) CHO

CNC(=O)CC[C@@H](C)[C@H]1CCC2C3C(CC[C@@]21C)[C@@]1(C)CC[C@H](NCCCNCCCN)CC1C[C@H]3O (stereo partly drawn) [(11), 3β-norspermidino-N-methylchenodeoxycholamide]
MIC (E. coli Human ATCC 28922): 13 µg/mL (≈ 25.1 µM)
IC50 (C. albicans): 3 µg/mL (≈ 5.78 µM)
MIC [1]: 6 µg/mL (≈ 11.6 µM)
MIC [2]: 12 µg/mL (≈ 23.1 µM)
MIC [3]: 13 µg/mL (≈ 25.1 µM)
MIC (S. aureus Animal (340)): 3 µg/mL (≈ 5.78 µM)
MIC [4]: 6 µg/mL (≈ 11.6 µM)
MIC [5]: 1 µg/mL (≈ 1.93 µM)
IC50 (CHO-K1 cells; [6]): 20 µg/mL (≈ 38.5 µM)
IC50 (CHO-K1 cells; [7]): 20 µg/mL (≈ 38.5 µM)
MIC - P. aeruginosa (1051575): content of compound of formula (I) to restore the doxycycline activity (at 2 μg/mL) (P. aeruginosa (1051575)): 2 µg/mL
MIC (E. coli Animal (1956)): 13 µg/mL (≈ 25.1 µM)

CC(C)NC(=O)CC[C@@H](C)[C@H]1CCC2C3CCC4C[C@@H](NCCCNCCCNCCCN)CC[C@]4(C)C3C[C@H](O)[C@@]21C (stereo partly drawn) [Compound (1), 3β-norspermino-N-isopropyldeoxycholamide]
MIC (E. coli Human ATCC 28922): 8 µg/mL (≈ 13.2 µM)
IC50 (C. albicans): 0.5 µg/mL (≈ 0.828 µM)
MIC [1]: 8 µg/mL (≈ 13.2 µM)
MIC [2]: 8 µg/mL (≈ 13.2 µM)
MIC [3]: 8 µg/mL (≈ 13.2 µM)
MIC (S. aureus Animal (340)): 2 µg/mL (≈ 3.31 µM)
MIC [4]: 4 µg/mL (≈ 6.62 µM)
MIC [5]: 0.5 µg/mL (≈ 0.828 µM)
IC50 (CHO-K1 cells; [6]): 42 µg/mL (≈ 69.5 µM)
IC50 (CHO-K1 cells; [7]): 33 µg/mL (≈ 54.6 µM)
MIC - P. aeruginosa (1051575): content of compound of formula (I) to restore the doxycycline activity (at 2 μg/mL) (P. aeruginosa (1051575)): 1 µg/mL
MIC (E. coli Animal (1956)): 8 µg/mL (≈ 13.2 µM)

C[C@H](CCC(=O)NC1CCCCC1)[C@H]1CCC2C3C(CC[C@@]21C)[C@@]1(C)CC[C@H](NCCCN(CCCN)CCCN)CC1C[C@H]3O (stereo partly drawn) [(47), 3β-(tris(3-aminopropyl)amine)-N-cyclohexylchenodeoxycholamide]
MIC (E. coli Human ATCC 28922): 130 µg/mL (≈ 202 µM)
IC50 (C. albicans): 2 µg/mL (≈ 3.11 µM)
MIC [1]: 32 µg/mL (≈ 49.7 µM)
MIC [2]: 130 µg/mL (≈ 202 µM)
MIC [3]: 8 µg/mL (≈ 12.4 µM)
MIC (S. aureus Animal (340)): 8 µg/mL (≈ 12.4 µM)
MIC [4]: 4 µg/mL (≈ 6.21 µM)
MIC [5]: 8 µg/mL (≈ 12.4 µM)
MIC - P. aeruginosa (1051575): content of compound of formula (I) to restore the doxycycline activity (at 2 μg/mL) (P. aeruginosa (1051575)): 2 µg/mL
MIC (E. coli Animal (1956)): 32 µg/mL (≈ 49.7 µM)

CC(C)NC(=O)CC[C@@H](C)[C@H]1CCC2C3C(CC[C@@]21C)[C@@]1(C)CC[C@H](NCCCNCCCCN)CC1C[C@H]3O (stereo partly drawn) [(52), 3β-spermidino-N-isopropylchenodeoxycholamide]
MIC (E. coli Human ATCC 28922): 112 µg/mL (≈ 200 µM)
IC50 (C. albicans): 4 µg/mL (≈ 7.13 µM)
MIC [1]: 112 µg/mL (≈ 200 µM)
MIC [2]: 56 µg/mL (≈ 99.8 µM)
MIC [3]: 14 µg/mL (≈ 25 µM)
MIC (S. aureus Animal (340)): 4 µg/mL (≈ 7.13 µM)
MIC [4]: 7 µg/mL (≈ 12.5 µM)
MIC [5]: 2 µg/mL (≈ 3.57 µM)
IC50 (CHO-K1 cells; [6]): 80 µg/mL (≈ 143 µM)
IC50 (CHO-K1 cells; [7]): 48 µg/mL (≈ 85.6 µM)
MIC - P. aeruginosa (1051575): content of compound of formula (I) to restore the doxycycline activity (at 2 μg/mL) (P. aeruginosa (1051575)): 3.5 µg/mL
MIC (E. coli Animal (1956)): 28 µg/mL (≈ 49.9 µM)

CC(C)N(C(=O)CC[C@@H](C)[C@H]1CCC2C3C(CC[C@@]21C)[C@@]1(C)CC[C@H](NCCCNCCCNCCCN)CC1C[C@H]3O)C(C)C (stereo partly drawn) [(40), 3β-norspermino-N,N-diisopropylchenodeoxycholamide]
MIC (E. coli Human ATCC 28922): 32 µg/mL (≈ 49.5 µM)
IC50 (C. albicans): 1 µg/mL (≈ 1.55 µM)
MIC [1]: 8 µg/mL (≈ 12.4 µM)
MIC [2]: 8 µg/mL (≈ 12.4 µM)
MIC [3]: 2 µg/mL (≈ 3.1 µM)
MIC (S. aureus Animal (340)): 2 µg/mL (≈ 3.1 µM)
MIC [4]: 4 µg/mL (≈ 6.19 µM)
MIC [5]: 2 µg/mL (≈ 3.1 µM)
MIC - P. aeruginosa (1051575): content of compound of formula (I) to restore the doxycycline activity (at 2 μg/mL) (P. aeruginosa (1051575)): 2 µg/mL
MIC (E. coli Animal (1956)): 8 µg/mL (≈ 12.4 µM)
